# System: U2OS_Bim cells
# Test: Apoptosis inhibition assay (Bim-induced apoptosis, cell viability by ATP level)
# Assay type: cell-based
# Details: U2OS_Bim cells; means of duplicates; numbering of Tables 4a/4b; read-out: EC50
# Outline: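 Apoptosis was triggered by doxycycline (0.1 μg/mL) induction of Bim, one hour after compound addition to U2OS_Bim cells. Survival was measured after 24 h from cellular ATP (CellTiter-Glo), relative to DMSO, with zVAD at 20 μM as rescue control. Data are duplicate means, some estimated from preliminary results.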
row,EC50 [nM],SMILES
1,1000 to 10000,"Cc1cc(-c2cc(F)c(=O)n(CC3CCCCC3)c2)nc(S(=O)(=O)CCC(OCc2ccc(F)cc2F)c2ccccc2)n1 (centres unmarked) [Compound 309, 1-(cyclohexylmethyl)-5-(2-(3-(2,4-difluorobenzyloxy)-3-phenylpropylsulfonyl)-6-methylpyrimidin-4-yl)-3-fluoropyridin-2 (1H)-one]"
2,1000 to 10000,"CCOc1cccc(Cn2cc(-c3cc(C)nc([S+]([O-])CCC(OCc4ccc(F)cc4F)c4ccccc4)n3)cc(F)c2=O)c1 (centres unmarked) [Compound 310, 5-(2-((3-((2,4-difluorobenzyl)oxy)-3-phenylpropyl)sulfinyl)-6-methylpyrimidin-4-yl)-1-(3-ethoxybenzyl)-3-fluoropyridin-2 (1H)-one]"
3,1 to 1000,"CCOc1cccc(Cn2cc(-c3cc(C)nc(S(=O)(=O)CCC(OCc4ccc(F)cc4F)c4ccccc4)n3)cc(F)c2=O)c1 (centres unmarked) [Compound 311, 5-(2-((3-((2,4-difluorobenzyl)oxy)-3-phenylpropyl)sulfonyl)-6-methylpyrimidin-4-yl)-1-(3-ethoxybenzyl)-3-fluoropyridin-2 (1H)-one]"
4,< 100000,"Cc1cc(-c2cc(F)c(=O)n(CC3CCNCC3)c2)nc(S(=O)(=O)CCC(OCc2ccc(F)cc2F)c2ccccc2)n1 (centres unmarked) [Compound 312, 5-(2-(3-(2,4-difluorobenzyloxy)-3-phenylpropylsulfonyl)-6-methylpyrimidin-4-yl)-3-fluoro-1-(piperidin-4-ylmethyl)pyridin-2 (1H)-one]"
5,1000 to 10000,"Cc1cc(-c2cc(F)c(=O)n(CC3CCOCC3)c2)nc([S+]([O-])CCC(OCc2ccc(F)cc2F)c2ccccc2)n1 (centres unmarked) [Compound 313, 5-(2-(3-(2,4-difluorobenzyloxy)-3-phenylpropylsulfinyl)-6-methylpyrimidin-4-yl)-3-fluoro-1-((tetrahydro-2H-pyran-4-yl)methyl)pyridin-2 (1H)-one]"
6,1 to 1000,"Cc1cc(-c2cc(F)c(=O)n(CC3CCOCC3)c2)nc(S(=O)(=O)CCC(OCc2ccc(F)cc2F)c2ccccc2)n1 (centres unmarked) [Compound 314, 5-(2-(3-(2,4-difluorobenzyloxy)-3-phenylpropylsulfonyl)-6-methylpyrimidin-4-yl)-3-fluoro-1-((tetrahydro-2H-pyran-4-yl)methyl)pyridin-2 (1H)-one]"
7,< 100000,"Cc1cc(-c2cc(F)c(=O)n(Cc3ccc(Cl)c(Cl)c3)c2)nc([S+]([O-])CCC(OCc2ccc(F)cc2F)c2ccccc2)n1 (centres unmarked) [Compound 315, 1-(3,4-dichlorobenzyl)-5-(2-(3-(2,4-difluorobenzyloxy)-3-phenylpropylsulfinyl)-6-methylpyrimidin-4-yl)-3-fluoropyridin-2 (1H)-one]"
8,1000 to 10000,"Cc1cc(-c2cc(F)c(=O)n(Cc3ccc(Cl)c(Cl)c3)c2)nc(S(=O)(=O)CCC(OCc2ccc(F)cc2F)c2ccccc2)n1 (centres unmarked) [Compound 316, 1-(3,4-dichlorobenzyl)-5-(2-(3-(2,4-difluorobenzyloxy)-3-phenylpropylsulfonyl)-6-methylpyrimidin-4-yl)-3-fluoropyridin-2 (1H)-one]"
9,1 to 1000,"Cc1cc(-c2cc(F)c(=O)n(Cc3ccc4c(c3)OCO4)c2)nc(S(=O)(=O)CCC(OCc2ccc(F)cc2F)c2ccccc2)n1 (centres unmarked) [Compound 317, 1-(benzo[d][1,3]dioxol-5-ylmethyl)-5-(2-((3-((2,4-difluorobenzyl)oxy)-3-phenylpropyl)sulfonyl)-6-methylpyrimidin-4-yl)-3-fluoropyridin-2 (1H)-one]"
10,1 to 1000,"Cc1cc(-c2cc(F)c(=O)n(Cc3ccc4c(c3)OCO4)c2)nc(S(=O)(=O)CCC(OCc2ccccc2F)c2ccccc2)n1 (centres unmarked) [Compound 318, 1-(benzo[d][1,3]dioxol-5-ylmethyl)-3-fluoro-5-(2-(3-(2-fluorobenzyloxy)-3-phenylpropylsulfonyl)-6-methylpyrimidin-4-yl)pyridin-2 (1H)-one]"
11,1 to 1000,"Cc1cc(-c2cc(F)c(=O)n(Cc3ccc4nsnc4c3)c2)nc(S(=O)(=O)CCC(OCc2ccccc2F)c2ccccc2)n1 (centres unmarked) [Compound 319, 1-(benzo[c][1,2,5]thiadiazol-5-ylmethyl)-3-fluoro-5-(2-(3-(2-fluorobenzyloxy)-3-phenylpropylsulfonyl)-6-methylpyrimidin-4-yl)pyridin-2 (1H)-one]"

# From patent US11725000B2, “Apoptosis inhibitors” (National Institute of Biological Sciences, Beijing, priority 2017, dated 2023)
